Patent publication US9113629B2, “4-amino-6-(4-substituted-phenyl)-picolinates and 6-amino-2-(4-substituted-phenyl)-pyrimidine-4-carboxylates and their use as herbicides” (DOW AGROSCIENCES LLC, priority 2013, dated 2015)
Where two headings read alike, the source gives them in different places.

Assays:
[1] = test system: Key Grass and Sedge Weeds as well as Grass Crops; assay: Post-emergent Test II herbicidal activity (Table 6); type: in vivo; conditions: post-emergence, 336 h; for pest or weed control at 70 g/ha: application rate 70 g ai/ha; for pest or weed control at 140 g/ha: application rate 140 g ai/ha
Experimental: (§1) Post-emergent Test II: Seeds or nutlets of the desired test plant species were planted in Sun Gro Metro-Mix® 360 planting mixture, which typically has a pH of 6.0 to 6.8 and an organic matter content of about 30 percent, in plastic pots with a surface area of 64 square centimeters. When required to ensure good germination and healthy plants, a fungicide treatment and/or other chemical or physical treatment was applied. The plants were grown for 7-21 d in a greenhouse with an approximate 15 h photoperiod which was maintained at about 23-29° C. during the day and 22-28° C. during the night. Nutrients and water were added on a regular basis and supplemental lighting was provided with overhead metal halide 1000-Watt lamps as necessary. The plants were employed for testing when they reached the first or second true leaf stage.
(§2) A weighed amount, determined by the highest rate to be tested, of each test compound was placed in a 25 mL glass vial and was dissolved in 4 mL of a 97:3 v/v mixture of acetone and DMSO to obtain concentrated stock solutions. […] The concentrated stock solutions obtained were diluted with 20 mL of an aqueous mixture containing acetone, water, isopropyl alcohol, DMSO. Atplus 411F crop oil concentrate, and Triton® X-155 surfactant in a 48.5:39:10:1.5:1.0:0.02 v/v ratio to obtain spray solutions containing the highest application rates. Additional application rates were obtained by serial dilution of 12 mL of the high rate solution into a solution containing 2 mL of 97:3 v/v mixture of acetone and DMSO and 10 mL of an aqueous mixture containing acetone, water, isopropyl alcohol, DMSO, Atplus 411F crop oil concentrate, and Triton X-155 surfactant in a 48.5:39:10:1.5:1.0:0.02 v/v ratio to obtain ½×, ¼×, ⅛× and 1/16× rates of the high rate. Compound requirements are based upon a 12 mL application volume at a rate of 187 liters per hectare (L/ha). Formulated compounds were applied to the plant material with an overhead Mandel track sprayer equipped with 8002E nozzles calibrated to deliver 187 L/ha over an application area of 0.503 square meters at a spray height of 18 inches (43 cm) above the average plant canopy height. Control plants were sprayed in the same manner with the solvent blank.
(§3) The treated plants and control plants were placed in a greenhouse as described above and watered by subirrigation to prevent wash-off of the test compounds. After 14 d, the condition of the test plants as compared with that of the untreated plants was determined visually and scored on a scale of 0 to 100 percent where 0 corresponds to no injury and 100 corresponds to complete kill.

[2] = test system: Key Broadleaf Weed and Crop Species; assay: Post-emergent Test II herbicidal activity (Table 5); type: in vivo; conditions: post-emergence, 336 h, 14 days after application
Experimental: as §1, §2, §3

[3] = Triticum aestivum, TRZSS (wheat), read-out: Visual Growth Reduction (%) 14 Days After Application, TRZSS
[4] = CYPES: yellow nutsedge (Cyperus esculentus), read-out: Visual Growth Reduction (%) 14 Days After Application, CYPES
[5] = DIGSA: crabgrass (Digitaria sanguinalis), read-out: Visual Growth Reduction (%) 14 Days After Application, DIGSA
[6] = ORYSA: rice (Oryza sativa), read-out: Visual Growth Reduction (%) 14 Days After Application, ORYSA
[7] = SETFA: giant foxtail (Setaria faberi), read-out: Visual Growth Reduction (%) 14 Days After Application, SETFA
[8] = SORVU: grain sorghum (Sorghum vulgare), read-out: Visual Growth Reduction (%) 14 Days After Application, SORVU
[9] = ZEAMX: maize, corn (Zea mays), read-out: Visual Growth Reduction (%) 14 Days After Application, ZEAMX

SMILES | melting point [°C] | pest or weed control at 70 g/ha [1, 3] [%] | pest or weed control at 140 g/ha [1, 3] [%] | pest or weed control at 70 g/ha [1, 4] [%] | pest or weed control at 140 g/ha [1, 4] [%] | pest or weed control at 70 g/ha [1, 5] [%] | pest or weed control at 140 g/ha [1, 5] [%] | pest or weed control at 70 g/ha [1, 6] [%] | pest or weed control at 140 g/ha [1, 6] [%] | pest or weed control at 70 g/ha [1, 7] [%] | pest or weed control at 140 g/ha [1, 7] [%] | pest or weed control at 70 g/ha [1, 8] [%] | pest or weed control at 140 g/ha [1, 8] [%] | pest or weed control at 70 g/ha [1, 9] [%] | pest or weed control at 140 g/ha [1, 9] [%] | other results
C#Cc1ccc(-c2nc(C(=O)O)c(Cl)c(N)c2C)cc1F [Compound 6, 4-Amino-3-chloro-6-(4-ethynyl-3-fluorophenyl)-5-methylpicolinic acid] | 175 to 176.5 | – | – | – | – | – | – | – | – | – | – | – | – | – | – | –
C=Cc1c(C(=O)OC)nc(-c2ccc(I)cc2)c(F)c1N [Compound 139, methyl 4-amino-5-fluoro-6-(4-iodophenyl)-3-vinylpicolinate] | 95 to 96 | – | – | – | – | – | – | – | – | – | – | – | – | – | – | –
C=Cc1c(N)nc(-c2ccc(I)cc2)nc1C(=O)OC [Compound 164, methyl 6-amino-2-(4-iodophenyl)-5-vinylpyrimidine-4-carboxylate] | 142 to 144 | – | – | – | – | – | – | – | – | – | – | – | – | – | – | –
COC(=O)c1nc(-c2cccc(F)c2)c(F)c(N)c1Cl [Compound 183] | – | 0 to 29 | 0 to 29 | 0 to 29 | 0 to 29 | 0 to 29 | 0 to 29 | 0 to 29 | 0 to 29 | 0 to 29 | 0 to 29 | 30 to 44 | 45 to 59 | 0 to 29 | 0 to 29 | pest or weed control at 70 g/ha ([2]; ABUTH: velvetleaf (Abutilon theophrasti), application rate 70 g ai/ha, read-out: Visual Growth Reduction (%) 14 Days After Application, ABUTH): 75 to 84%; pest or weed control at 140 g/ha ([2]; ABUTH: velvetleaf (Abutilon theophrasti), application rate 140 g ai/ha, read-out: Visual Growth Reduction (%) 14 Days After Application, ABUTH): 95 to 100%; pest or weed control at 70 g/ha ([2]; AMARE: redroot pigweed (Amaranthus retroflexus), application rate 70 g ai/ha, read-out: Visual Growth Reduction (%) 14 Days After Application, AMARE): 95 to 100%; pest or weed control at 140 g/ha ([2]; AMARE: redroot pigweed (Amaranthus retroflexus), application rate 140 g ai/ha, read-out: Visual Growth Reduction (%) 14 Days After Application, AMARE): 95 to 100%; pest or weed control at 70 g/ha ([2]; BRSNN: oilseed-rape, canola (Brassica napus), application rate 70 g ai/ha, read-out: Visual Growth Reduction (%) 14 Days After Application, BRSNN): 60 to 74%; pest or weed control at 140 g/ha ([2]; BRSNN: oilseed-rape, canola (Brassica napus), application rate 140 g ai/ha, read-out: Visual Growth Reduction (%) 14 Days After Application, BRSNN): 85 to 94%; pest or weed control at 70 g/ha ([2]; CHEAL: lambsquarters (Chenopodium album), application rate 70 g ai/ha, read-out: Visual Growth Reduction (%) 14 Days After Application, CHEAL): 95 to 100%; pest or weed control at 140 g/ha ([2]; CHEAL: lambsquarters (Chenopodium album), application rate 140 g ai/ha, read-out: Visual Growth Reduction (%) 14 Days After Application, CHEAL): 95 to 100%; pest or weed control at 70 g/ha ([2]; EPHHL: wild poinsettia (Euphorbia heterophylla), application rate 70 g ai/ha, read-out: Visual Growth Reduction (%) 14 Days After Application, EPHHL): 95 to 100%; pest or weed control at 140 g/ha ([2]; EPHHL: wild poinsettia (Euphorbia heterophylla), application rate 140 g ai/ha, read-out: Visual Growth Reduction (%) 14 Days After Application, EPHHL): 95 to 100%; pest or weed control at 70 g/ha ([2]; HELAN: sunflower (Helianthus annuus), application rate 70 g ai/ha, read-out: Visual Growth Reduction (%) 14 Days After Application, HELAN): 85 to 94%; pest or weed control at 140 g/ha ([2]; HELAN: sunflower (Helianthus annuus), application rate 140 g ai/ha, read-out: Visual Growth Reduction (%) 14 Days After Application, HELAN): 85 to 94%; pest or weed control at 70 g/ha ([2]; VIOTR: wild pansy (Viola tricolor), application rate 70 g ai/ha, read-out: Visual Growth Reduction (%) 14 Days After Application, VIOTR): 0 to 29%; pest or weed control at 140 g/ha ([2]; VIOTR: wild pansy (Viola tricolor), application rate 140 g ai/ha, read-out: Visual Growth Reduction (%) 14 Days After Application, VIOTR): 0 to 29%
COC(=O)c1nc(-c2cc(F)ccc2F)c(F)c(N)c1Cl [Compound 189] | – | 0 to 29 | 0 to 29 | 0 to 29 | 0 to 29 | 0 to 29 | 0 to 29 | 0 to 29 | 0 to 29 | 0 to 29 | 0 to 29 | 0 to 29 | 0 to 29 | 0 to 29 | 0 to 29 | pest or weed control at 70 g/ha ([2]; ABUTH: velvetleaf (Abutilon theophrasti), 70 g ai/ha, post-emergent, read-out: Visual Growth Reduction (%) 14 Days After Application ABUTH): 75 to 84%; pest or weed control at 140 g/ha ([2]; ABUTH: velvetleaf (Abutilon theophrasti), 140 g ai/ha, post-emergent, read-out: Visual Growth Reduction (%) 14 Days After Application ABUTH): 75 to 84%; pest or weed control at 70 g/ha ([2]; AMARE: redroot pigweed (Amaranthus retroflexus), 70 g ai/ha, post-emergent, read-out: Visual Growth Reduction (%) 14 Days After Application AMARE): 95 to 100%; pest or weed control at 140 g/ha ([2]; AMARE: redroot pigweed (Amaranthus retroflexus), 140 g ai/ha, post-emergent, read-out: Visual Growth Reduction (%) 14 Days After Application AMARE): 95 to 100%; pest or weed control at 70 g/ha ([2]; BRSNN: oilseed-rape, canola (Brassica napus), 70 g ai/ha, post-emergent, read-out: Visual Growth Reduction (%) 14 Days After Application BRSNN): 45 to 59%; pest or weed control at 140 g/ha ([2]; BRSNN: oilseed-rape, canola (Brassica napus), 140 g ai/ha, post-emergent, read-out: Visual Growth Reduction (%) 14 Days After Application BRSNN): 60 to 74%; pest or weed control at 70 g/ha ([2]; CHEAL: lambsquarters (Chenopodium album), 70 g ai/ha, post-emergent, read-out: Visual Growth Reduction (%) 14 Days After Application CHEAL): 85 to 94%; pest or weed control at 140 g/ha ([2]; CHEAL: lambsquarters (Chenopodium album), 140 g ai/ha, post-emergent, read-out: Visual Growth Reduction (%) 14 Days After Application CHEAL): 85 to 94%; pest or weed control at 70 g/ha ([2]; EPHHL: wild poinsettia (Euphorbia heterophylla), 70 g ai/ha, post-emergent, read-out: Visual Growth Reduction (%) 14 Days After Application EPHHL): 0 to 29%; pest or weed control at 140 g/ha ([2]; EPHHL: wild poinsettia (Euphorbia heterophylla), 140 g ai/ha, post-emergent, read-out: Visual Growth Reduction (%) 14 Days After Application EPHHL): 0 to 29%; pest or weed control at 70 g/ha ([2]; HELAN: sunflower (Helianthus annuus), 70 g ai/ha, post-emergent, read-out: Visual Growth Reduction (%) 14 Days After Application HELAN): 85 to 94%; pest or weed control at 140 g/ha ([2]; HELAN: sunflower (Helianthus annuus), 140 g ai/ha, post-emergent, read-out: Visual Growth Reduction (%) 14 Days After Application HELAN): 85 to 94%; pest or weed control at 140 g/ha ([2]; VIOTR: wild pansy (Viola tricolor), 140 g ai/ha, post-emergent, read-out: Visual Growth Reduction (%) 14 Days After Application VIOTR): 0 to 29%
COc1c(N)nc(-c2ccccc2)nc1C(=O)O [Compound 207] | 130 to 132 | – | – | – | – | – | – | – | – | – | – | – | – | – | – | –
